# Laboratory results as given in patent publication US20250114338A1, “TETRAHYDRO-PYRIDO[3,4-b]INDOLE ESTROGEN RECEPTOR MODULATORS AND USES THEREOF” (Genentech, Inc., priority 2014, published 2025).
# How the values were obtained:
# immature rat uterus = assay: Immature Uterine Wet Weight Assay, agonist mode (Example 906); format: in vivo; details: dosed PO, QDx3, uterine wet weight:body weight ratio, endometrial height
# Experimental: All of the exemplary Formula I compounds in Tables 1 and 2 were made and characterized by LCMS [M+H]^+ (liquid chromatography mass spectroscopy) with detection of parent ion. […] ER-alpha MCF7 HCS Sinf (%) values in Table 1 were measured by the Breast Cancer Cell ERa High Content Fluorescence Imaging Degradation Assay of Example 901. […] RTP, 25 (3):226-31). […] Where more than one name is associated with a Formula I compound or intermediate, the chemical structure shall define the compound. Female immature CD-IGS rats (21 days old upon arrival) are treated for three days. Animals are dosed daily for three days. […] For Agonist Mode, Vehicle or test compound is administered orally by gavage. On the fourth day 24 hours after dose, plasma is collected for pharmacokinetic analysis. Immediately following plasma collection, the animals are euthanized and the uterus removed and weighed. […] Stained tissues are analyzed and read by a board certified pathologist. Uteri and ovaries from 4 animals per group are flash frozen in liquid N2 for transcriptional analysis, examining a select set of genes modulated by the estrogen receptor. […] U.S. Pat. […] Vehicle and Vehicle plus ethynyl estradiol (EE). All compounds were dosed PO, QDx3. Uterine Wet Weight (UWW): Body Weight ratios were calculated. The mean Endometrial Height of Uterine cross sections were measured by histology. Endometrial cell height was measured from the basement membrane to the apical (luminal) surface using a slide viewer at 20× magnification. Obliquely cut areas were avoided.
# [1] = target: estrogen receptor alpha (ESR1) in MCF7 breast cancer cells (Homo sapiens (Human), UniProt P03372); assay: Breast Cancer Cell ERa High Content Fluorescence Imaging Degradation Assay (Example 901); format: cell-based; details: 4 hours, plateau of maximal effect, 0% = DMSO, 100% change = 5 nM Fulvestrant
# Chain of estrogen receptor alpha (ESR1) in MCF7 breast cancer cells (P03372 whole entry): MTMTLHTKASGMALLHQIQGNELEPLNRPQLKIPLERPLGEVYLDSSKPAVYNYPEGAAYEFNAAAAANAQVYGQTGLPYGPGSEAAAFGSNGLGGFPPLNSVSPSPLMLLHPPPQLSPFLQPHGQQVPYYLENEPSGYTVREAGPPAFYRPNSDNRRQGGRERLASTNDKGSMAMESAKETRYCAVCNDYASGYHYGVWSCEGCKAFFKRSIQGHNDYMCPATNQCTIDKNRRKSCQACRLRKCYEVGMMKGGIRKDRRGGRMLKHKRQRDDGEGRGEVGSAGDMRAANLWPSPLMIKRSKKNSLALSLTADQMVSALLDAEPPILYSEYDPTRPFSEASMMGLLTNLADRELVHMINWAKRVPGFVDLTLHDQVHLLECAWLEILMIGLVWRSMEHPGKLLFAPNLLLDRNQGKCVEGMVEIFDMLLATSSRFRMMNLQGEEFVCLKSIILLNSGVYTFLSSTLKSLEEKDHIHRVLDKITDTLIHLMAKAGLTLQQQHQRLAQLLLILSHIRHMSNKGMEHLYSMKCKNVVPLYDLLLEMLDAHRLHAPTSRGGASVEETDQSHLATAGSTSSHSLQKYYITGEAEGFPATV
# Experimental: Where more than one name is associated with a Formula I compound or intermediate, the chemical structure shall define the compound. […] Cell plates were incubated at 37° C., for 4 hours. Fixation and permeabilization were carried out using a Biotek EL406 plate washer and dispenser as follows. […] Well contents were aspirated and washed 3 times with 100 μL/well of PBS. […] Samples were incubated for 2 hours at room temperature. […] Samples were incubated for 2 hours at room temperature. […] Quantitative fluorescence imaging of ESR1 was carried out using a Cellomics Arrayscan V (Thermo). […] Channel 1 (DNA stain) was used to define the nuclear region (Circ). […] The “Robust Fit” method was used to define the inflexion point of curve (EC50) and the plateau of the maximal effect (Sinf).
# ER-alpha MCF7 = ER-alpha MCF7 HCS EC50; stated as measured by in vitro cell proliferation assays of Examples 902 and 903; format: cell-based; details: Homo sapiens, MCF7, MCF7 cells; Table 1
# Outline: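 MCF7 cells seeded 1000-2000 cells/well for 16 h, then treated with nine-point 1:2 DMSO dilution series in quadruplicate at 37 °C, 5% CO2 for 4 days. Viable cells quantified by CellTiter-Glo ATP luminescence; EC50 calculated. Controls: fulvestrant at final 100 nM, DMSO 0.2% v/v.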
SMILES,ER-alpha MCF7 HCS Sinf (%) [1] [%],EC50 (ER-alpha MCF7) [nM],agonist mode UWW assay: antagonist / partial agonist (immature rat uterus)
"C[C@@H]1Cc2c([nH]c3ccccc23)[C@@H](c2c(F)cc(/C=C/C(=O)O)cc2F)N1CC(C)(C)F [AZD9496, reference compound]",,,partial agonist
"C[C@@H]1Cc2c([nH]c3ccccc23)[C@@H](c2c(F)cc(OC3CN(CCCF)C3)cc2F)N1CC(C)(C)F [Example 101, (1R,3R)-1-(2,6-difluoro-4-((1-(3-fluoropropyl)azetidin-3-yl)oxy)phenyl)-2-(2-fluoro-2-methylpropyl)-3-methyl-2,3,4,9-tetrahydro-1H-pyrido[3,4-b]indole]",−100,,antagonists
"C[C@@H]1Cc2c([nH]c3ccccc23)[C@@H](c2c(F)cc(OCCN3CC(CF)C3)cc2F)N1CC1COC1 [Example 115, (1R,3R)-1-(2,6-difluoro-4-(2-(3-(fluoromethyl)azetidin-1-yl)ethoxy)phenyl)-3-methyl-2-(oxetan-3-ylmethyl)-2,3,4,9-tetrahydro-1H-pyrido[3,4-b]indole]",−95.5,23.1,
"C[C@@H]1Cc2c([nH]c3ccccc23)[C@@H](c2c(F)cc(OCCN3CC(CF)C3)cc2F)N1C1COC1 [Example 116, (1R,3R)-1-(2,6-difluoro-4-(2-(3-(fluoromethyl)azetidin-1-yl)ethoxy)phenyl)-3-methyl-2-(oxetan-3-yl)-2,3,4,9-tetrahydro-1H-pyrido[3,4-b]indole]",−85,41.4,
"C[C@@H]1Cc2c([nH]c3ccccc23)[C@@H](c2ccc(OCCN3CC(CF)C3)cc2F)N1CC(C)(C)F [Example 120, (1R,3R)-2-(2-fluoro-2-methylpropyl)-1-(2-fluoro-4-(2-(3-(fluoromethyl)azetidin-1-yl)ethoxy)phenyl)-3-methyl-2,3,4,9-tetrahydro-1H-pyrido[3,4-b]indole]",−96.3,0.0562,
"C[C@@H]1Cc2c([nH]c3ccccc23)[C@@H](c2c(F)cc(OCCN3CC(CF)C3)cc2F)N1C(=O)C1CC(O)C1 (stereo partly drawn) [Example 124, ((1R,3R)-1-(2,6-difluoro-4-(2-(3-(fluoromethyl)azetidin-1-yl)ethoxy)phenyl)-3-methyl-3,4-dihydro-1H-pyrido[3,4-b]indol-2(9H)-yl)((1s,3S)-3-hydroxycyclobutyl) methanone]",−75,135,

# The next lines start with results.
ER-alpha MCF7 HCS Sinf (%) [1] [%],EC50 (ER-alpha MCF7) [nM],SMILES,agonist mode UWW assay: antagonist / partial agonist (immature rat uterus)
−98.9,,"C[C@@H]1Cc2c([nH]c3ccccc23)[C@@H](c2c(F)cc(OCCN3CC(CF)C3)cc2F)N1CC(C)(C)F [Example 102, (1R,3R)-1-(2,6-difluoro-4-(2-(3-(fluoromethyl)azetidin-1-yl)ethoxy)phenyl)-2-(2-fluoro-2-methylpropyl)-3-methyl-2,3,4,9-tetrahydro-1H-pyrido[3,4-b]indole]",antagonists
−97.8,1.4,"C[C@@H]1Cc2c([nH]c3ccccc23)[C@@H](c2c(F)cc(OCCN3CC(CF)C3)cc2F)N1C(=O)C(C)(C)O [Example 122, 1-((1R,3R)-1-(2,6-difluoro-4-(2-(3-(fluoromethyl)azetidin-1-yl)ethoxy)phenyl)-3-methyl-3,4-dihydro-1H-pyrido[3,4-b]indol-2(9H)-yl)-2-hydroxy-2-methylpropan-1-one]",
−96.1,1.04,"C[C@@H](CO)CN1[C@H](c2c(F)cc(OCCN3CC(CF)C3)cc2F)c2[nH]c3ccccc3c2C[C@H]1C [Example 123, (R)-3-((1R,3R)-1-(2,6-difluoro-4-(2-(3-(fluoromethyl)azetidin-1-yl)ethoxy)phenyl)-3-methyl-3,4-dihydro-1H-pyrido[3,4-b]indol-2(9H)-yl)-2-methylpropan-1-ol]",
−90,74.4,"CC(C)C(=O)N1C(c2c(F)cc(OCCN3CC(CF)C3)cc2F)c2[nH]c3ccccc3c2CC1(C)C (stereo not shown) [Example 125, 1-(1-(2,6-difluoro-4-(2-(3-(fluoromethyl)azetidin-1-yl)ethoxy)phenyl)-3,3-dimethyl-3,4-dihydro-1H-pyrido[3,4-b]indol-2(9H)-yl)-2-methylpropan-1-one]",
